Among the data in patent US10653144B2, “Pesticidal and parasiticidal vinyl isoxazoline compounds” (BOEHRINGER INGELHEIM ANIMAL HEALTH USA INC., priority 2016, dated 2020) are EC50 values, retold here.

This assay deals with A. aegypti L1 larvae. Briefly: A. aegypti L1 larvae motility dose response assay. The conditions noted are these: Aedes aegypti, 48 h, diluted LB media, 25° C., motility vs DMSO control wells. How it is done:
Efficacy of Compounds Against A. aegypti Mosquitos Compounds were formulated in 100% DMSO are added to microtiter plates containing 180 μl of diluted LB media (Luria-Bertani media is a combination of tryptone, salt and yeast extract). Ten A. aegypti L1 larvae are added and the plates are incubated at 25° C. for 48 h. The efficacy of a compound is determined based on the motility of the larvae as compared to average motility of control wells containing DMSO only. A dose response assay was conducted to determine an EC50 value.
As to `O=C(CNC(=O)c1ccc(/C=C/C2=NOC(c3cc(Cl)cc(C(F)(F)F)c3)(C(F)(F)F)C2)c2ccccc12)NCC(F)(F)F` (stereo not shown) [Compound 1, 2-([4-[2-[5-[3-chloro-5-(trifluoromethyl)phenyl]-5-(trifluoromethyl)-4,5-dihydro-1,2-oxazol-3-yl]ethenyl]naphthalen-1-yl]formamido)-N-(2,2,2-trifluoroethyl)acetamide], the EC50 was ≤ 20 µM. Take `O=C(NCCC(F)(F)F)c1ccc(/C=C/C2=NOC(c3cc(Cl)cc(C(F)(F)F)c3)(C(F)(F)F)C2)c2ccccc12` (stereo not shown) [Compound 2, 4-[2-[5-[3-chloro-5-(trifluoromethyl)phenyl]-5-(trifluoromethyl)-4,5-dihydro-1,2-oxazol-3-yl]ethenyl]-N-(3,3,3-trifluoropropyl)naphthalene-1-carboxamide]: the half-maximal effective concentration (EC50) is ≤ 20 µM.

On to `O=C(CNC(=O)c1ccc(/C=C/C2=NOC(c3cc(Cl)cc(C(F)(F)F)c3)(C(F)(F)F)C2)n2cncc12)NCC(F)(F)F` (stereo not shown) [Compound 5, 2-([5-[2-[5-[3-chloro-5-(trifluoromethyl)phenyl]-5-(trifluoromethyl)-4,5-dihydro-1,2-oxazol-3-yl]ethenyl]imidazo[1,5-a]pyridin-8-yl]formamido)-N-(2,2,2-trifluoroethyl)acetamide], for which the EC50 is ≤ 20 µM. As for `O=C(NCCC(F)(F)F)c1ccc(/C=C/C2=NOC(c3cc(Cl)cc(C(F)(F)F)c3)(C(F)(F)F)C2)n2cncc12` (stereo not shown) [Compound 6, 5-[2-[5-[3-chloro-5-(trifluoromethyl)phenyl]-5-(trifluoromethyl)-4,5-dihydro-1,2-oxazol-3-yl]ethenyl]-N-(3,3,3-trifluoropropyl)imidazo[1,5-a]pyridine-8-carboxamide], the figure is ≤ 20 µM.
